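Step 1: Grow cells in 96-well plates. Step 2: Expose to compound for 48 hours at 5 concentrations. Step 3: Interpolate endpoints linearly; if unreached, use highest concentration. Here, GI50 denotes the concentration required for 50% inhibition of growth. TGI marks complete inhibition of growth.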
How the values were obtained:
Assay in all cases: growth of human tumour cells (NCI), 48 h
786-0 renal = tested on: 786-0 renal
A498 renal = tested on: A498 renal
A549 NSCLC = tested on: A549 NSCLC
ACHN renal = tested on: ACHN renal
BT-549 breast = tested on: BT-549 breast
CCRF-CEM leukemia = tested on: CCRF-CEM leukemia
COLO 205 colon = tested on: COLO 205 colon
EKVX NSCLC = tested on: EKVX NSCLC
HCC-2998 colon = tested on: HCC-2998 colon
HCT-116 colon = tested on: HCT-116 colon
HCT-15 colon = tested on: HCT-15 colon
HL-60(TB) leukemia = tested on: HL-60(TB) leukemia
HOP-62 NSCLC = tested on: HOP-62 NSCLC
HOP-92 NSCLC = tested on: HOP-92 NSCLC
HS 578T breast = tested on: HS 578T breast
HT29 colon = tested on: HT29 colon
IGROV1 ovarian = tested on: IGROV1 ovarian
K-562 leukemia = tested on: K-562 leukemia
KM12 colon = tested on: KM12 colon
LOX IMVI melanoma = tested on: LOX IMVI melanoma
M14 melanoma = tested on: M14 melanoma
MALME-3M melanoma = tested on: MALME-3M melanoma
MCF7 breast = tested on: MCF7 breast
MDA-MB-231 breast = tested on: MDA-MB-231 breast
MDA-MB-435 = tested on: MDA-MB-435
MOLT-4 leukemia = tested on: MOLT-4 leukemia
NCI-H226 lung = tested on: NCI-H226 lung
NCI-H23 lung = tested on: NCI-H23 lung
NCI-H460 lung = tested on: NCI-H460 lung
NCI-H522 lung = tested on: NCI-H522 lung
NCI/ADR-RES ovarian = tested on: NCI/ADR-RES ovarian
OVCAR-3 ovarian = tested on: OVCAR-3 ovarian
OVCAR-4 ovarian = tested on: OVCAR-4 ovarian
OVCAR-5 ovarian = tested on: OVCAR-5 ovarian
OVCAR-8 ovarian = tested on: OVCAR-8 ovarian
PC-3 prostate = tested on: PC-3 prostate
RPMI-8226 leukemia = tested on: RPMI-8226 leukemia
RXF 393 renal = tested on: RXF 393 renal
SF-268 CNS = tested on: SF-268 CNS
SF-295 CNS = tested on: SF-295 CNS
SF-539 CNS = tested on: SF-539 CNS
SK-MEL-2 melanoma = tested on: SK-MEL-2 melanoma
SK-MEL-28 melanoma = tested on: SK-MEL-28 melanoma
SK-MEL-5 melanoma = tested on: SK-MEL-5 melanoma
SK-OV-3 ovarian = tested on: SK-OV-3 ovarian
SN12C renal = tested on: SN12C renal
SNB-19 CNS = tested on: SNB-19 CNS
SNB-75 CNS = tested on: SNB-75 CNS
SR leukemia = tested on: SR leukemia
SW-620 colon = tested on: SW-620 colon
T-47D breast = tested on: T-47D breast
TK-10 renal = tested on: TK-10 renal
U251 CNS = tested on: U251 CNS
UACC-257 melanoma = tested on: UACC-257 melanoma
UACC-62 melanoma = tested on: UACC-62 melanoma
UO-31 renal = tested on: UO-31 renal
CAKI-1 renal = tested on: CAKI-1 renal
DU-145 prostate = tested on: DU-145 prostate

## CCC(C)[C@H]1C(=O)O[C@H](C(C)C)C(=O)N(C)[C@@H](C(C)C)C(=O)O[C@H](C(C)C)C(=O)N(C)[C@@H](C(C)C)C(=O)O[C@H](C(C)C)C(=O)N1C (stereo partly drawn)
786-0 renal
  GI50: 3090 nM
  TGI: > 10000 nM
A498 renal
  GI50: 2610 nM
  TGI: 9710 nM
A549 NSCLC
  GI50: 3000 nM
  TGI: > 10000 nM
ACHN renal
  GI50: 788 nM
  TGI: > 10000 nM
BT-549 breast
  GI50: 2500 nM
  TGI: > 10000 nM
CCRF-CEM leukemia
  GI50: 3000 nM
  TGI: > 10000 nM
COLO 205 colon
  GI50: 1230 nM
  TGI: 2940 nM
EKVX NSCLC
  GI50: 2100 nM
  TGI: > 10000 nM
HCC-2998 colon
  GI50: 2670 nM
  TGI: > 10000 nM
HCT-116 colon
  GI50: 2080 nM
  TGI: > 10000 nM
HCT-15 colon
  GI50: 2700 nM
  TGI: > 10000 nM
HL-60(TB) leukemia
  GI50: 2460 nM
  TGI: 5260 nM
HOP-62 NSCLC
  GI50: 3520 nM
  TGI: > 10000 nM
HOP-92 NSCLC
  GI50: 1210 nM
  TGI: 6010 nM
HS 578T breast
  GI50: 4640 nM
  TGI: > 10000 nM
HT29 colon
  GI50: 2570 nM
  TGI: > 10000 nM
IGROV1 ovarian
  GI50: 3510 nM
  TGI: > 10000 nM
K-562 leukemia
  GI50: 1460 nM
  TGI: > 10000 nM
KM12 colon
  GI50: 1570 nM
  TGI: > 10000 nM
LOX IMVI melanoma
  GI50: 1940 nM
  TGI: > 10000 nM
M14 melanoma
  GI50: 1660 nM
  TGI: > 10000 nM
MALME-3M melanoma
  GI50: 577 nM
  TGI: > 10000 nM
MCF7 breast
  GI50: 1260 nM
  TGI: > 10000 nM
MDA-MB-231 breast
  GI50: 2560 nM
  TGI: 8150 nM
MDA-MB-435
  GI50: 2460 nM
  TGI: > 10000 nM
MOLT-4 leukemia
  GI50: 3610 nM
  TGI: 9970 nM
NCI-H226 lung
  GI50: 3620 nM
  TGI: > 10000 nM
NCI-H23 lung
  GI50: 1680 nM
  TGI: > 10000 nM
NCI-H460 lung
  GI50: 1650 nM
  TGI: > 10000 nM
NCI-H522 lung
  GI50: 1610 nM
  TGI: > 10000 nM
NCI/ADR-RES ovarian
  GI50: 2120 nM
  TGI: > 10000 nM
OVCAR-3 ovarian
  GI50: 704 nM
  TGI: > 10000 nM
OVCAR-4 ovarian
  GI50: 2010 nM
  TGI: > 10000 nM
OVCAR-5 ovarian
  GI50: 3210 nM
  TGI: > 10000 nM
OVCAR-8 ovarian
  GI50: 2110 nM
  TGI: > 10000 nM
PC-3 prostate
  GI50: 1560 nM
  TGI: > 10000 nM
RPMI-8226 leukemia
  GI50: 457 nM
  TGI: 4930 nM
RXF 393 renal
  GI50: 2730 nM
  TGI: > 10000 nM
SF-268 CNS
  GI50: 3850 nM
  TGI: > 10000 nM
SF-295 CNS
  GI50: 717 nM
  TGI: > 10000 nM
SF-539 CNS
  GI50: 3650 nM
  TGI: > 10000 nM
SK-MEL-2 melanoma
  GI50: 3810 nM
  TGI: > 10000 nM
SK-MEL-28 melanoma
  GI50: 2720 nM
  TGI: > 10000 nM
SK-MEL-5 melanoma
  GI50: 761 nM
  TGI: 2920 nM
SK-OV-3 ovarian
  GI50: 2470 nM
  TGI: 7590 nM
SN12C renal
  GI50: 1720 nM
  TGI: > 10000 nM
SNB-19 CNS
  GI50: 2070 nM
  TGI: > 10000 nM
SNB-75 CNS
  GI50: 2750 nM
  TGI: > 10000 nM
SR leukemia
  GI50: 3670 nM
  TGI: > 10000 nM
SW-620 colon
  GI50: 3100 nM
  TGI: > 10000 nM
T-47D breast
  GI50: 1080 nM
  TGI: 7810 nM
TK-10 renal
  GI50: 2580 nM
  TGI: > 10000 nM
U251 CNS
  GI50: 2190 nM
  TGI: > 10000 nM
UACC-257 melanoma
  GI50: 2080 nM
  TGI: > 10000 nM
UACC-62 melanoma
  GI50: 631 nM
  TGI: > 10000 nM
UO-31 renal
  GI50: 1030 nM
  TGI: > 10000 nM

## COc1ccc([C@H]2[C@H](O)C(=O)N2c2cc(OC)c(OC)c(OC)c2)cc1Cl
786-0 renal
  GI50: < 15.5 nM
  TGI: > 100000 nM
A498 renal
  GI50: > 59800 nM
  TGI: > 100000 nM
A549 NSCLC
  GI50: < 14.1 nM
  TGI: > 100000 nM
ACHN renal
  GI50: < 10 nM
  TGI: > 100000 nM
BT-549 breast
  GI50: < 12.5 nM
  TGI: 718 nM
CAKI-1 renal
  GI50: < 10 nM
  TGI: > 43100 nM
CCRF-CEM leukemia
  GI50: < 10 nM
  TGI: > 100000 nM
COLO 205 colon
  GI50: < 14.9 nM
  TGI: < 22.5 nM
DU-145 prostate
  GI50: < 12.8 nM
  TGI: > 100000 nM
EKVX NSCLC
  TGI: > 100000 nM
HCC-2998 colon
  GI50: < 18.8 nM
HCT-116 colon
  GI50: < 10 nM
  TGI: > 62600 nM
HCT-15 colon
  GI50: < 11.8 nM
  TGI: > 100000 nM
HL-60(TB) leukemia
  GI50: < 10 nM
HOP-62 NSCLC
  GI50: < 11.4 nM
  TGI: > 100000 nM
HOP-92 NSCLC
  GI50: 828 nM
  TGI: > 100000 nM
HS 578T breast
  GI50: < 15.8 nM
  TGI: > 100000 nM
HT29 colon
  GI50: < 10 nM
IGROV1 ovarian
  GI50: < 11.1 nM
  TGI: > 100000 nM
K-562 leukemia
  GI50: < 10 nM
  TGI: > 100000 nM
KM12 colon
  GI50: < 11.3 nM
  TGI: > 100000 nM
LOX IMVI melanoma
  GI50: < 10 nM
  TGI: > 100000 nM
M14 melanoma
  GI50: < 12.8 nM
  TGI: > 100000 nM
MALME-3M melanoma
  GI50: < 14.9 nM
  TGI: > 100000 nM
MCF7 breast
  GI50: < 10 nM
  TGI: > 100000 nM
MDA-MB-231 breast
  GI50: < 16.1 nM
  TGI: > 100000 nM
MDA-MB-435
  GI50: < 10 nM
  TGI: < 10.4 nM
MOLT-4 leukemia
  GI50: < 17 nM
  TGI: > 100000 nM
NCI-H226 lung
  GI50: < 10 nM
  TGI: 50500 nM
NCI-H23 lung
  GI50: 10.6 nM
  TGI: > 100000 nM
NCI-H460 lung
  GI50: < 12.7 nM
NCI-H522 lung
  GI50: < 10 nM
  TGI: < 10.5 nM
NCI/ADR-RES ovarian
  GI50: < 13.6 nM
OVCAR-3 ovarian
  GI50: < 10 nM
OVCAR-4 ovarian
  GI50: 442 nM
  TGI: > 100000 nM
OVCAR-5 ovarian
  GI50: < 12 nM
  TGI: > 100000 nM
OVCAR-8 ovarian
  GI50: < 14.1 nM
PC-3 prostate
  GI50: < 16.8 nM
  TGI: > 100000 nM
RPMI-8226 leukemia
  GI50: < 11.2 nM
  TGI: > 35400 nM
RXF 393 renal
  GI50: < 10 nM
  TGI: > 100000 nM
SF-268 CNS
  GI50: < 24.1 nM
  TGI: > 100000 nM
SF-295 CNS
  GI50: < 10 nM
  TGI: > 100000 nM
SF-539 CNS
  GI50: < 10 nM
SK-MEL-2 melanoma
  GI50: 31.9 nM
  TGI: > 100000 nM
SK-MEL-28 melanoma
  GI50: < 43.4 nM
  TGI: > 100000 nM
SK-MEL-5 melanoma
  GI50: < 10 nM
  TGI: 36.5 nM
SK-OV-3 ovarian
  GI50: < 18.7 nM
  TGI: > 100000 nM
SN12C renal
  GI50: < 10 nM
  TGI: > 100000 nM
SNB-19 CNS
  GI50: < 24.1 nM
  TGI: > 100000 nM
SNB-75 CNS
  GI50: < 10 nM
  TGI: > 100000 nM
SR leukemia
  GI50: < 10 nM
  TGI: > 87200 nM
SW-620 colon
  GI50: < 10 nM
  TGI: > 100000 nM
T-47D breast
  GI50: > 38400 nM
  TGI: > 100000 nM
TK-10 renal
  GI50: > 100000 nM
  TGI: > 100000 nM
U251 CNS
  GI50: 18.6 nM
  TGI: > 100000 nM
UACC-257 melanoma
  TGI: > 100000 nM
UACC-62 melanoma
  GI50: < 10 nM
  TGI: > 100000 nM
UO-31 renal
  GI50: < 19.2 nM
  TGI: > 100000 nM

— PubChem BioAssay (NCI)
